Reference: patent US20250154138A1, “Small Molecule IL-17A Modulators” (BeiGene, Ltd., priority 2022, published 2025)

Columns and labels:
[1] = test system: IL-17-induced GROα secretion from HT-29 cells; assay: GROα release assay in human colorectal adenocarcinoma epithelial cell (HT-29, ELISA); type: cell-based; conditions: Homo sapiens, HT-29, 48 h, 10 ng/mL IL-17A, highest concentration 10 μM, read-out: Cellular assay HT29 cell/CXCL1 IC50
How it was run: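 HT-29 cells were exposed 48 h at 37°C to IL-17A (final 10 ng/mL) preincubated 15 min with compound (4-fold dilutions, top 10 μM). Secreted GROα was quantified by ELISA against a standard curve, and IC50 obtained by four-parameter fitting.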

[2] = target: human IL-17A / human IL-17RA (Homo sapiens (Human), UniProt Q16552); assay: Human IL-17A biochemical assay (HTRF, blocking of IL-17A binding to IL-17RA); conditions: 0.4 nM IL-17A, 0.3 nM IL-17RA, max compound concentration 10 uM
How it was run: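 Inhibition of IL-17A binding to IL-17RA is measured by HTRF using 0.4 nM IL-17A, 0.3 nM IL-17RA and a 3 h compound pre-incubation at room temperature, pH 7.5. IC50 values come from four-parameter logistic fitting.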

Sequence of human IL-17A / human IL-17RA (Q16552 24-155): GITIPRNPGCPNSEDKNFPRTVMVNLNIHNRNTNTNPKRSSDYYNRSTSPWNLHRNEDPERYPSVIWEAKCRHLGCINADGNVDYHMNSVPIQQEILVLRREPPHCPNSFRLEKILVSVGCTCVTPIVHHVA

| Structure (SMILES) | IC50 [1] | IC50 [2] |
| --- | --- | --- |
| Cc1nonc1C(=O)N[C@H](C(=O)Nc1ccc2c(c1)CC(C(=O)NCc1cccnn1)(N1CC3(CC3)CNC1=O)C2)C1CCC(F)(F)CC1 (stereo partly drawn) [Example 228, N-((1S)-1-(4,4-difluorocyclohexyl)-2-oxo-2-((2-(6-oxo-5,7-diazaspiro[2.5]octan-5-yl)-2-((pyridazin-3-ylmethyl)carbamoyl)-2,3-dihydro-1H-inden-5-yl)amino)ethyl)-4-methyl-1,2,5-oxadiazole-3-carboxamide] | 49.1 nM | 15.9 nM |
| Cc1cccc(NC(=O)C2(N3CC4(CC4)CNC3=O)Cc3ccc(NC(=O)[C@@H](NC(=O)c4nonc4C)C4CCC(F)(F)CC4)cc3C2)c1 (stereo partly drawn) [Example 229, N-((1S)-1-(4,4-difluorocyclohexyl)-2-oxo-2-((2-(6-oxo-5,7-diazaspiro[2.5]octan-5-yl)-2-(m-tolylcarbamoyl)-2,3-dihydro-1H-inden-5-yl)amino)ethyl)-4-methyl-1,2,5-oxadiazole-3-carboxamide] | 85.1 nM | 28.6 nM |
| Cc1nonc1C(=O)N[C@H](C(=O)Nc1ccc2c(c1)CC(C1CCCC1)(N1CC3(CC3)CNC1=O)C2)C(C1CC1)C1CC1 (stereo partly drawn) [Example 230, N-((2S)-1-((2-cyclopentyl-2-(6-oxo-5,7-diazaspiro[2.5]octan-5-yl)-2,3-dihydro-1H-inden-5-yl)amino)-3,3-dicyclopropyl-1-oxopropan-2-yl)-4-methyl-1,2,5-oxadiazole-3-carboxamide] | 9470 nM | 4460 nM |
| Cc1nonc1C(=O)N[C@H](C(=O)Nc1ccc2c(c1)CC(N1C[C@@H](C(C)C)NC1=O)C2)C(C1CC1)C1CC1 (stereo partly drawn) [Example 231, N-((2S)-1,1-dicyclopropyl-3-((2-((R)-4-isopropyl-2-oxoimidazolidin-1-yl)-2,3-dihydro-1H-inden-5-yl)amino)-3-oxopropan-2-yl)-4-methyl-1,2,5-oxadiazole-3-carboxamide] | 1970 nM | 1080 nM |
| Cc1nonc1C(=O)N[C@H](C(=O)Nc1ccc2c(c1)CC(C(=O)NC1(c3ccccc3F)CC1)(N1CC3(CC3)CNC1=O)C2)C1CCC(F)(F)CC1 (stereo partly drawn) [Example 232, N-((1S)-1-(4,4-difluorocyclohexyl)-2-((2-((1-(2-fluorophenyl)cyclopropyl)carbamoyl)-2-(6-oxo-5,7-diazaspiro[2.5]octan-5-yl)-2,3-dihydro-1H-inden-5-yl)amino)-2-oxoethyl)-4-methyl-1,2,5-oxadiazole-3-carboxamide] | 158 nM | 117 nM |
| Cc1nonc1C(=O)N[C@H](C(=O)Nc1ccc2c(c1)CC(C(=O)NC1(c3cc(F)ccc3F)CC1)(N1CC3(CC3)CNC1=O)C2)C1CCC(F)(F)CC1 (stereo partly drawn) [Example 233, N-((1S)-1-(4,4-difluorocyclohexyl)-2-((2-((1-(2,5-difluorophenyl)cyclopropyl)carbamoyl)-2-(6-oxo-5,7-diazaspiro[2.5]octan-5-yl)-2,3-dihydro-1H-inden-5-yl)amino)-2-oxoethyl)-4-methyl-1,2,5-oxadiazole-3-carboxamide] | 90.1 nM | 77.8 nM |
| Cc1nonc1C(=O)N[C@H](C(=O)Nc1ccc2c(c1)CC(C(=O)Nc1ccccc1)(N1C[C@@H](C(C)C)NC1=O)C2)C(C1CC1)C1CC1 (stereo partly drawn) [Example 234, N-((2S)-1,1-dicyclopropyl-3-((2-((R)-4-isopropyl-2-oxoimidazolidin-1-yl)-2-(phenylcarbamoyl)-2,3-dihydro-1H-inden-5-yl)amino)-3-oxopropan-2-yl)-4-methyl-1,2,5-oxadiazole-3-carboxamide] | 207 nM | 340 nM |
| CC(C)[C@@H]1CN(C2(C(=O)Nc3ccccc3)Cc3ccc(NC(=O)[C@@H](NC(=O)c4ccnn4C(C)C)C(C4CC4)C4CC4)cc3C2)C(=O)N1 (stereo partly drawn) [Example 235, N-((2S)-1,1-dicyclopropyl-3-((2-((R)-4-isopropyl-2-oxoimidazolidin-1-yl)-2-(phenylcarbamoyl)-2,3-dihydro-1H-inden-5-yl)amino)-3-oxopropan-2-yl)-1-isopropyl-1H-pyrazole-5-carboxamide] | 214 nM | 229 nM |
| Cc1nonc1C(=O)N[C@H](C(=O)Nc1ccc2c(c1)CC(C(=O)Nc1cccc(F)c1)(N1C[C@@H](C(C)C)NC1=O)C2)C(C1CC1)C1CC1 (stereo partly drawn) [Example 236, N-((2S)-1,1-dicyclopropyl-3-((2-((3-fluorophenyl)carbamoyl)-2-((R)-4-isopropyl-2-oxoimidazolidin-1-yl)-2,3-dihydro-1H-inden-5-yl)amino)-3-oxopropan-2-yl)-4-methyl-1,2,5-oxadiazole-3-carboxamide] | 537 nM | 245 nM |
| Cn1nccc1C(=O)N[C@H](C(=O)Nc1ccc2c(c1)OC(CN1C[C@@H](C(F)(F)F)NC1=O)C2)C1CCCCC1 (stereo partly drawn) [Example 237, N-((1S)-1-cyclohexyl-2-oxo-2-((2-(((S)-2-oxo-4-(trifluoromethyl)imidazolidin-1-yl)methyl)-2,3-dihydrobenzofuran-6-yl)amino)ethyl)-1-methyl-1H-pyrazole-5-carboxamide] | 53.3 nM | 27.1 nM |
| Cc1nonc1C(=O)N[C@H](C(=O)Nc1ccc2c(c1)CC(C(O)C(F)(F)F)(N1C[C@@H](C(C)C)NC1=O)C2)C(C1CC1)C1CC1 (stereo partly drawn) [Example 238, N-((2S)-1,1-dicyclopropyl-3-((2-((R)-4-isopropyl-2-oxoimidazolidin-1-yl)-2-(2,2,2-trifluoro-1-hydroxyethyl)-2,3-dihydro-1H-inden-5-yl)amino)-3-oxopropan-2-yl)-4-methyl-1,2,5-oxadiazole-3-carboxamide] | 137 nM | 222 nM |
| Cc1conc1C(=O)N[C@H](C(=O)Nc1ccc2c(c1)CC(N1C[C@@H](C(F)(F)F)NC1=O)C2)C(C1CC1)C1CC1 (stereo partly drawn) [Example 239, N-((2S)-1,1-dicyclopropyl-3-oxo-3-((2-((S)-2-oxo-4-(trifluoromethyl)imidazolidin-1-yl)-2,3-dihydro-1H-inden-5-yl)amino)propan-2-yl)-4-methylisoxazole-3-carboxamide] | 3210 nM | 977 nM |
| Cn1nccc1C(=O)N[C@H](C(=O)Nc1ccc2oc(CN3C[C@@H](C(F)(F)F)NC3=O)cc2c1)C1CCCCC1 [Example 240, N-((S)-1-cyclohexyl-2-oxo-2-((2-(((S)-2-oxo-4-(trifluoromethyl)imidazolidin-1-yl)methyl)benzofuran-5-yl)amino)ethyl)-1-methyl-1H-pyrazole-5-carboxamide] | 264 nM | 200 nM |
| Cc1nonc1C(=O)N[C@H](C(=O)Nc1ccc2c(c1)CC(Cc1ccc(F)cc1)(N1C[C@@H](C(C)C)NC1=O)C2)C(C1CC1)C1CC1 (stereo partly drawn) [Example 241, N-((2S)-1,1-dicyclopropyl-3-((2-(4-fluorobenzyl)-2-((R)-4-isopropyl-2-oxoimidazolidin-1-yl)-2,3-dihydro-1H-inden-5-yl)amino)-3-oxopropan-2-yl)-4-methyl-1,2,5-oxadiazole-3-carboxamide] | 5800 nM | 2920 nM |
| Cc1nonc1C(=O)N[C@H](C(=O)Nc1ccc2c(c1)CC(C(=O)Nc1ccccc1)(N1C[C@@H](C(C)C)NC1=O)C2)C1CCC(F)(F)CC1 (stereo partly drawn) [Example 242, N-((1S)-1-(4,4-difluorocyclohexyl)-2-((2-((R)-4-isopropyl-2-oxoimidazolidin-1-yl)-2-(phenylcarbamoyl)-2,3-dihydro-1H-inden-5-yl)amino)-2-oxoethyl)-4-methyl-1,2,5-oxadiazole-3-carboxamide] | 652 nM | 250 nM |
| Cc1nonc1C(=O)N[C@H](C(=O)Nc1ccc2c(c1)CC(C(=O)Nc1cccc(F)c1)(N1C[C@@H](C(C)C)NC1=O)C2)C1CCC(F)(F)CC1 (stereo partly drawn) [Example 243, N-((1S)-1-(4,4-difluorocyclohexyl)-2-((2-((3-fluorophenyl)carbamoyl)-2-((R)-4-isopropyl-2-oxoimidazolidin-1-yl)-2,3-dihydro-1H-inden-5-yl)amino)-2-oxoethyl)-4-methyl-1,2,5-oxadiazole-3-carboxamide] | 317 nM | 290 nM |
| COCC1(N2C[C@@H](C(C)C)NC2=O)Cc2ccc(NC(=O)[C@@H](NC(=O)c3nonc3C)C(C3CC3)C3CC3)cc2C1 (stereo partly drawn) [Example 244, N-((2S)-1,1-dicyclopropyl-3-((2-((R)-4-isopropyl-2-oxoimidazolidin-1-yl)-2-(methoxymethyl)-2,3-dihydro-1H-inden-5-yl)amino)-3-oxopropan-2-yl)-4-methyl-1,2,5-oxadiazole-3-carboxamide] | 1570 nM | 2130 nM |
| COCC1(N2C[C@@H](C(C)C)NC2=O)Cc2ccc(NC(=O)[C@@H](NC(=O)c3ccnn3C)C(C3CC3)C3CC3)cc2C1 (stereo partly drawn) [Example 245, N-((2S)-1,1-dicyclopropyl-3-((2-((R)-4-isopropyl-2-oxoimidazolidin-1-yl)-2-(methoxymethyl)-2,3-dihydro-1H-inden-5-yl)amino)-3-oxopropan-2-yl)-1-methyl-1H-pyrazole-5-carboxamide] | 92.5 nM | 52.4 nM |
| Cc1nonc1C(=O)N[C@H](C(=O)Nc1ccc2c(c1)CC(c1cn3ncccc3n1)(N1C[C@@H](C(C)C)NC1=O)C2)C(C1CC1)C1CC1 (stereo partly drawn) [Example 246, N-((2S)-1,1-dicyclopropyl-3-((2-(imidazo[1,2-b]pyridazin-2-yl)-2-((R)-4-isopropyl-2-oxoimidazolidin-1-yl)-2,3-dihydro-1H-inden-5-yl)amino)-3-oxopropan-2-yl)-4-methyl-1,2,5-oxadiazole-3-carboxamide] | 1220 nM | 257 nM |
